Results taken from paper PMC7967212, “Vitamin D Compounds PRI-2191 and PRI-2205 Enhance Anastrozole Activity in Human Breast Cancer Models” (International Journal of Molecular Sciences, 2021).

Biological target: T1, aromatase (CYP19) (Homo sapiens, UniProt P11511)
T1 construct: gene CYP19A1
T1 sequence (P11511 1-503): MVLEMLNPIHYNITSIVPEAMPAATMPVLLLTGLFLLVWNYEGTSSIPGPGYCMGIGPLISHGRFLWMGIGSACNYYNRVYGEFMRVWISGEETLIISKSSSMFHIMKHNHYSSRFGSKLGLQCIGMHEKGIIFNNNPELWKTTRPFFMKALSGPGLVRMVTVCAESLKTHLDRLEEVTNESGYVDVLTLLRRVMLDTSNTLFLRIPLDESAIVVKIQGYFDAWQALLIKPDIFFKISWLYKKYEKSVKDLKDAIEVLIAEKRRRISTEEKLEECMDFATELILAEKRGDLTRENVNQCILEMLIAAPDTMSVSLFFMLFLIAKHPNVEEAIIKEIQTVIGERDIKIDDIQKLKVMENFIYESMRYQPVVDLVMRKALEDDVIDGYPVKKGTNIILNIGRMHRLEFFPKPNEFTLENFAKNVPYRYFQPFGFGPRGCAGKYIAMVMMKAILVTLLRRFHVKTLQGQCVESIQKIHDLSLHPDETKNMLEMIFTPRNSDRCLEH
Assay: CYP19/MFC High Throughput Inhibitor Screening Kit (Corning No. […]), fluorogenic enzyme inhibition
Type: biochemical

An IC50 of 152 ± 30.5 nM was found for `C=C1/C(=C\C=C2/CCC[C@]3(C)[C@@H]([C@H](C)CC[C@@H](O)C(C)C)CC[C@@H]23)C[C@@H](O)C[C@@H]1O` [PRI-2191] in this work.
